{"source": "patent US6056941A", "about": "“Kit for the preparation of technetium TC 99m teboroxime myocardial perfusion agent” (priority 1999, dated 2000)", "assay": "Clearance following intravenous administration in normal subjects (heart and liver)", "format": "in vivo, human", "text": "Table II approximates the effective clearance of Technetium Tc-99 m Teboroxime from the heart and liver.", "data": [{"compound": "C[B-](ON=C1CCCCC1=N[O-])(ON=C1CCCCC1=NO)ON=C1CCCCC1=NO.[99Tc+3].[Cl-]", "note": "[Technetium Tc-99 m Teboroxime, ^99m Tc (chlorine) (1,2-cyclohexanedione dioxime)3 methyl boron]", "values": [{"measurement": "clearance from the circulation", "value": "rapidly cleared from the circulation"}, {"measurement": "time of peak heart uptake", "setting": "heart", "value": "≤ 2", "unit": "min"}, {"measurement": "effective clearance, Heart", "setting": "heart, 5 min", "value": 2.3, "unit": "%"}, {"measurement": "effective clearance, Heart", "setting": "heart, 10 min", "value": 1.7, "unit": "%"}, {"measurement": "effective clearance, Heart", "setting": "heart, 15 min", "value": 1.5, "unit": "%"}, {"measurement": "effective clearance, Heart", "setting": "heart, 20 min", "value": 1.3, "unit": "%"}, {"measurement": "effective clearance, Heart", "setting": "heart, 1 hr", "value": 1.1, "unit": "%"}, {"measurement": "effective clearance, Heart", "setting": "heart, 2 hr", "value": 0.8, "unit": "%"}, {"measurement": "effective clearance, Heart", "setting": "heart, 4 hr", "value": 0.6, "unit": "%"}, {"measurement": "effective clearance, Liver", "setting": "5 min", "value": 23, "unit": "%"}, {"measurement": "effective clearance, Liver", "setting": "10 min", "value": 33, "unit": "%"}, {"measurement": "effective clearance, Liver", "setting": "15 min", "value": 32, "unit": "%"}, {"measurement": "effective clearance, Liver", "setting": "20 min", "value": 27, "unit": "%"}, {"measurement": "effective clearance, Liver", "setting": "1 hr", "value": 24, "unit": "%"}, {"measurement": "effective clearance, Liver", "setting": "2 hr", "value": 18, "unit": "%"}, {"measurement": "effective clearance, Liver", "setting": "4 hr", "value": 17, "unit": "%"}]}]}
